Laboratory results: patent US20170275287A1, “NOVEL N2, N4, N7, 6-TETRASUBSTITUTED PTERIDINE-2,4,7-TRIAMINE AND 2, 4, 6, 7-TETRASUBSTITUTED PTERIDINE COMPOUNDS AND METHODS OF SYNTHESIS AND USE THEREOF” (Janus Biotherapeutics, Inc., priority 2014, published 2017)

How the values were obtained:
TLR8 = target: T1, TLR8 (Homo sapiens, UniProt Q9NR97); experiment: TLR8 antagonist assay in human PBMCs (ORN1075, TNFα ELISA); assay type: cell-based; settings: human PBMC, 0.5 μM ORN1075, TNFα readout
T1 construct: PBMCs were isolated from unpurified buffy coat from healthy human donors; host or cells: primary human PBMCs
T1 sequence (Q9NR97 27-1041): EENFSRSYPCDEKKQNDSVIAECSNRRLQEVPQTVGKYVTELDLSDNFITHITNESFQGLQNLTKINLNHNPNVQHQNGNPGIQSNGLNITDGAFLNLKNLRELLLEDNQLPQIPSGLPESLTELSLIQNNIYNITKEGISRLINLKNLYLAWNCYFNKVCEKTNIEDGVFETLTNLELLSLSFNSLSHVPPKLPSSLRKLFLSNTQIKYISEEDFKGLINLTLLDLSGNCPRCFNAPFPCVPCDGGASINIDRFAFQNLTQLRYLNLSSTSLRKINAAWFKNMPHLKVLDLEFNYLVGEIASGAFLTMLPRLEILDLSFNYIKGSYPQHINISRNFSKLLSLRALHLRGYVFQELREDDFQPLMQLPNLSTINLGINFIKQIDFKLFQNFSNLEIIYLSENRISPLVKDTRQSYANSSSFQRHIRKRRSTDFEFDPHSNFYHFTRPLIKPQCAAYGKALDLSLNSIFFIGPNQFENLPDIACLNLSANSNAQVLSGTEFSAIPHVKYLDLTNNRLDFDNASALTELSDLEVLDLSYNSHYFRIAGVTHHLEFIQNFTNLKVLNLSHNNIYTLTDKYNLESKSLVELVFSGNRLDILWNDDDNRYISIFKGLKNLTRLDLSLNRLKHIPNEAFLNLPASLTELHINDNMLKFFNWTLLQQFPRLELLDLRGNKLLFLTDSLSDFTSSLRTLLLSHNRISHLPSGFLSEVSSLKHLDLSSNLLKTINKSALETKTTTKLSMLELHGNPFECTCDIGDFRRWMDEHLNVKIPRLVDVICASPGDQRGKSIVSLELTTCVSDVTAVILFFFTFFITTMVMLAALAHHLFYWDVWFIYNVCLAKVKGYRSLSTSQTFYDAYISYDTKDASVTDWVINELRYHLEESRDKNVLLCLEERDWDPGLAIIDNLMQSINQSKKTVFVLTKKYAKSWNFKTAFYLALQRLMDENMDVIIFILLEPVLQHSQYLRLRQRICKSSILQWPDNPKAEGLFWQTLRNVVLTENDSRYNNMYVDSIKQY
Procedure: PBMCs were isolated from unpurified buffy coat from healthy human donors (Blood Research Components, LLC). For antagonist testing, cells were plated on 96-well U-bottom plates at 3×10^6 cells/ml. Antagonist compounds were added to cells in duplicate wells and titrated from 10 μM in 1:3 serial dilutions (8 antagonist concentrations tested in total). After approximately 30 minutes, cells were stimulated with agonist compound (see table 2 for agonist concentrations). After stimulation, cells were incubated overnight at 37° C. To increase the stability of the ssRNA, 3 μg/ml DOTAP (Roche) was added to ORN1075 agonist solutions. All dilutions were made in RPMI-1640 media (Sigma, cat.# R7388)+5% human male AB sera (Sigma, cat.# H4522)+1× Penicillin/Streptomycin solution (VWR, cat.#82026-730).
TLR activity was measured in PBMCs and neutrophils by ELISA using cytokine readouts specific for the TLR of interest.
TNFα was used as a readout for TLR8 activity in PBMCs and neutrophils stimulated with ORN1075 (See Table 3 for concentrations) using the ELISA Max™ Deluxe Set Human TNFα kit (BioLegend, cat.#430206). Supernatant from PBMCs was diluted 1:50 and from neutrophils at 1:3 in 1× Assay Diluent (BioLegend). ELISAs were run according to the kit product specifications. Absorbance at 450 nm was recorded using a Molecular Devices SpectraMax340PC plate reader. The IC50 for each antagonist was subsequently calculated following the method described below.
Raw ELISA datasets for each 96-well plate, consisting of absorbance readings at […], were first imported in Microsoft Excel to calculate the average absorbance for each standard or antagonist concentration. The averaged data was then imported into SigmaPlot v.11.0 where a standard curve was calculated and used to extrapolate the relative concentration of TLR readout (TNFα, IFNα, etc.) produced. The dose-response curve of each antagonist was then plotted with SigmaPlot v.11.0 on a Log scale. Concentrations of TLR readout were converted to a percentage relative to the average maximum concentration for that ELISA plate in Microsoft Excel. The IC50 for each antagonist was then determined with the SigmaPlot regression wizard using a 4-parameter Hill equation. Each antagonist was tested in a minimum of 3 independent experiments and IC50 results were compiled and averaged using Microsoft Excel.

hepatocyte = experiment: Hepatocyte viability assay (CEREP); assay type: cell-based
Procedure: See, Tables 4b and Scheme 18. The hepatocyte cell viability assays were performed by CEREP, Seattle, Wash., according to Mosmann, T., 1983, J. Immunol. Met. 65:55-62.

SMILES	IC50 (TLR8)	% Hepatocyte viability 24 h at 100 μM (hepatocyte)	% Hepatocyte viability 24 h at 50 μM (hepatocyte)
CN1CCN(c2nc(NCCN3CCOCC3)c3ncc(-c4ccccc4)nc3n2)CC1 [JB6059]	273 nM	69%	–
CN1CCN(c2nc3nc(-c4ccccc4)nc(NCCN4CCOCC4)c3nc2OCCN2CCOCC2)CC1 [JB6116]	658 nM	69%	–
CN1CCN(c2nc(NCCN3CCOCC3)c3nc(Cl)c(NCCN4CCOCC4)nc3n2)CC1 [JB6121, 6-chloro-2-(4-methylpiperazin-1-yl)-N^4,N^7-bis(2-morpholinoethyl)pteridine-4,7-diamine]	514 nM	92%	–
CCOc1nc2c(NCCN3CCCC3)nc(-c3ccccc3)nc2nc1N1CCN(C)CC1 [JB6131]	78 nM	11%	–
CCCCNc1nc(NCCN2CCOCC2)c2nc(Cl)c(NCCN3CCOCC3)nc2n1 [JB6140]	754 nM	–	59%
C[C@@H]1CN(CCNc2nc3nc(N4CCN(C)CC4)nc(NCCN4C[C@@H](C)O[C@@H](C)C4)c3nc2Cl)C[C@H](C)O1 [JB6143]	263 nM	–	74%
Clc1nc2c(NCCN3CCOCC3)nc(N3CCOCC3)nc2nc1NCCN1CCOCC1 [JB6147]	7300 nM	–	–
COCCN1CCN(c2nc(NCCN3CCOCC3)c3nc(Cl)c(NCCN4CCOCC4)nc3n2)CC1 [JB6160]	219 nM	–	47%
Clc1nc2c(NCCN3CCOCC3)nc(NCc3ccccc3)nc2nc1NCCN1CCOCC1 [JB6172]	246 nM	–	51%
CCOc1nc2c(NCCN3CCOCC3)nc(NCc3ccccc3)nc2nc1NCCN1CCOCC1 [JB6180]	151 nM	–	13%
CCCCNc1nc(NCCN2CCOCC2)c2nc(SCC)c(NCCN3CCOCC3)nc2n1 [JB6185]	136 nM	–	0%
